Assays:
[1] = molecular target: Receptor-type tyrosine-protein kinase FLT3 (Homo sapiens) (UniProt P36888); assay: Residual activity of wild type FLT3 at 10 uM by microplate scintillation counting
[2] = molecular target: Receptor tyrosine-protein kinase erbB-4 (Homo sapiens) (UniProt Q15303); assay: Residual activity of ERBB4 at 0.1 uM by microplate scintillation counting
[3] = molecular target: Serine/threonine-protein kinase MARK2 (Homo sapiens) (UniProt Q7KZI7); assay: Residual activity of MARK2 at 0.1 uM by microplate scintillation counting
Chain of Serine/threonine-protein kinase MARK2 (Homo sapiens) (Q7KZI7 whole entry): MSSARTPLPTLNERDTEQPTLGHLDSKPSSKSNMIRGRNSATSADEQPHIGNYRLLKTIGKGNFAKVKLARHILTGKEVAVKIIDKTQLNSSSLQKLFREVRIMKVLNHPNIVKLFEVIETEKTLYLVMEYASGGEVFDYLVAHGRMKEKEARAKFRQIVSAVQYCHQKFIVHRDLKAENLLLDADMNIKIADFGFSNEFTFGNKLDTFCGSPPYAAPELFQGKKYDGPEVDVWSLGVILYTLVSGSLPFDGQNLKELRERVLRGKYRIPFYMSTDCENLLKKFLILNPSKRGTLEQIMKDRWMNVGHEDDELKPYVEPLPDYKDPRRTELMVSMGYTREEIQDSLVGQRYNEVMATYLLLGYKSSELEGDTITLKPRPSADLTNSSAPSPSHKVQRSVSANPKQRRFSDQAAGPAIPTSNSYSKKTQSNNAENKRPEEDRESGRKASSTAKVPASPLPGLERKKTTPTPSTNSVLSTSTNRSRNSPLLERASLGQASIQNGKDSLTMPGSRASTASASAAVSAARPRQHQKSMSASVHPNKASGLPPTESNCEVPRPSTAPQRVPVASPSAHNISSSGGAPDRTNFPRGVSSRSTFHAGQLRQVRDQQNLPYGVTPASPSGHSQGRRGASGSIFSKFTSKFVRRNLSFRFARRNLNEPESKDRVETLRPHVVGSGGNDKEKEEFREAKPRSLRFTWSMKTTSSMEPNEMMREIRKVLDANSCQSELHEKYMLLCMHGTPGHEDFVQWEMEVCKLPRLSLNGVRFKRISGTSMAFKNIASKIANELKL

[4] = molecular target: T1, Lymphokine-activated killer T-cell-originated protein kinase (Homo sapiens) (UniProt Q96KB5); assay: Residual activity of PBK at 1 uM by microplate scintillation counting
T1 sequence (whole entry): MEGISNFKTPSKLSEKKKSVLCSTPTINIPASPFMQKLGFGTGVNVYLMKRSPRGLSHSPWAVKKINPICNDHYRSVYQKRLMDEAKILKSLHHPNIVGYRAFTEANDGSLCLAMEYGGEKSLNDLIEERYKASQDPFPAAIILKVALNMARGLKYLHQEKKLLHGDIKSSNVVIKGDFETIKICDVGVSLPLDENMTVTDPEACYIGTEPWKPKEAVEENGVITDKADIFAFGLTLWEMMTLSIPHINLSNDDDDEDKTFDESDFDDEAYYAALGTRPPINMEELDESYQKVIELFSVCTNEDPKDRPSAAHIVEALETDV

[5] = molecular target: Ribosomal protein S6 kinase alpha-5 (Homo sapiens) (UniProt O75582); assay: Residual activity of RPS6KA5 at 10 uM by microplate scintillation counting
Chain of Ribosomal protein S6 kinase alpha-5 (Homo sapiens) (O75582 whole entry, looked up): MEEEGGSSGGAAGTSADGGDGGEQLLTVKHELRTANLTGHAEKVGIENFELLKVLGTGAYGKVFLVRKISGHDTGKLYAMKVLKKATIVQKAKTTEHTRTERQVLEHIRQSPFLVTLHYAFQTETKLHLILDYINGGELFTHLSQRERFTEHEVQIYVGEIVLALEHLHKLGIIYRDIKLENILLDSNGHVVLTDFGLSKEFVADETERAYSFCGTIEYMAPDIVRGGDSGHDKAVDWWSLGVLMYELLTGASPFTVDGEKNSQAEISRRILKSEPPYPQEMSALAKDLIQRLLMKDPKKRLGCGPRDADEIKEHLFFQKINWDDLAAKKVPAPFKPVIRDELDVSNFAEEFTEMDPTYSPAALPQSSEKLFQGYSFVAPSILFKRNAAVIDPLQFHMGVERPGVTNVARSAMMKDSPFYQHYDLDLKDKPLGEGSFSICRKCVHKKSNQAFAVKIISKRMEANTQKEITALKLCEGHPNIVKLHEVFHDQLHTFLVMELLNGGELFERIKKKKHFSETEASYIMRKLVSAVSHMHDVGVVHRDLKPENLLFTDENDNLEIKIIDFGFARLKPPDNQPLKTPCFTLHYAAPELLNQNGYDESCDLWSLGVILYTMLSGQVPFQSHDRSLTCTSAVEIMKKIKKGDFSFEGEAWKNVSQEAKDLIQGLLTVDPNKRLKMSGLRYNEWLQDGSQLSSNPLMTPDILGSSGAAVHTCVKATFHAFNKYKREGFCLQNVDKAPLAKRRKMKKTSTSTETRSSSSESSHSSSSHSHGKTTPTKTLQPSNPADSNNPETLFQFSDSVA

[6] = molecular target: T2, Serine/threonine-protein kinase Sgk2 (Homo sapiens) (UniProt Q9HBY8); assay: Residual activity of SGK2 at 1 uM by microplate scintillation counting
T2 sequence (whole entry): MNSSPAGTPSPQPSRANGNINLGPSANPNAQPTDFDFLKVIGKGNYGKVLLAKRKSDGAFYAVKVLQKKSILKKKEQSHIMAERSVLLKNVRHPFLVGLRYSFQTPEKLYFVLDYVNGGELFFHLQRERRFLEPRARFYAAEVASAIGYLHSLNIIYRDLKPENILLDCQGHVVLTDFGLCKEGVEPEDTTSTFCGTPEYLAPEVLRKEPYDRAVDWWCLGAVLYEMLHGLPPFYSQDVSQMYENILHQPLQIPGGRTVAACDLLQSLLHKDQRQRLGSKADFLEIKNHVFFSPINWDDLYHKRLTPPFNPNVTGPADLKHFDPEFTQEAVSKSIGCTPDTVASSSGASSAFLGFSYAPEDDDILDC

[7] = molecular target: Serine/threonine-protein kinase 26 (Homo sapiens) (UniProt Q9P289); assay: Residual activity of MST4 at 1 uM by microplate scintillation counting
Chain of Serine/threonine-protein kinase 26 (Homo sapiens) (Q9P289 2-416 limits assumed): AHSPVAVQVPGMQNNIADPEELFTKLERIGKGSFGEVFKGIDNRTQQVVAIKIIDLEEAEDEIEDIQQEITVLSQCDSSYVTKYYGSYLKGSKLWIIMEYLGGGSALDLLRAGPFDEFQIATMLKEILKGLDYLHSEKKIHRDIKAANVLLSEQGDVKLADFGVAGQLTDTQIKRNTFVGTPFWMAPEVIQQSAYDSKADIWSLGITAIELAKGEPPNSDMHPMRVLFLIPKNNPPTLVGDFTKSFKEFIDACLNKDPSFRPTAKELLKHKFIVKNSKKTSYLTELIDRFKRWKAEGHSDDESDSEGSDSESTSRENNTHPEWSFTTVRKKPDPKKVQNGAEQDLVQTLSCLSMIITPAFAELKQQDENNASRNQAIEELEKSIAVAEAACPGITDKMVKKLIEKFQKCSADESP

[8] = molecular target: Dual specificity tyrosine-phosphorylation-regulated kinase 1A (Homo sapiens) (UniProt Q13627); assay: Residual activity of DYRK1A at 10 uM by microplate scintillation counting
[9] = molecular target: T3, cGMP-dependent protein kinase 1 (Homo sapiens) (UniProt Q13976); assay: Residual activity of PRKG1 at 10 uM by microplate scintillation counting
T3 sequence (whole entry): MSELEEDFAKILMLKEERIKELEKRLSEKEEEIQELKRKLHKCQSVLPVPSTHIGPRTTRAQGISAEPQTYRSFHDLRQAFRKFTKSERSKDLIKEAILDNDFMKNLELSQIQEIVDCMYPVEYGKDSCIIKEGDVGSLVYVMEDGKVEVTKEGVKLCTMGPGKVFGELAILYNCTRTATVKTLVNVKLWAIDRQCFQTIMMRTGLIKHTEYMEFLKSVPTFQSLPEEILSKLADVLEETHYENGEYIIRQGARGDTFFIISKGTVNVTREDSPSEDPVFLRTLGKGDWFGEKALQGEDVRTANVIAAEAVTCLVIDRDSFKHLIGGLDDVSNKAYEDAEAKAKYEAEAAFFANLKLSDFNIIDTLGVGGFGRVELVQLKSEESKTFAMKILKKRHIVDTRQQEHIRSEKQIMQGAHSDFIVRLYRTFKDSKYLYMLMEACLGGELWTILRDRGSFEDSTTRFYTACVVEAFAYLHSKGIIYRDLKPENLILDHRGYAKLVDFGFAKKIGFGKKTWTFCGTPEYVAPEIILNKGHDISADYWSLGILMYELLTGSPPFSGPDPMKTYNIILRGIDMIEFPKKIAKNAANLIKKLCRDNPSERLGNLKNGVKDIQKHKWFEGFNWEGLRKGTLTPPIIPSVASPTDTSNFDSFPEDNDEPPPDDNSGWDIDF

[10] = molecular target: T4, Aurora kinase A (Homo sapiens) (UniProt O14965); assay: Residual activity of Aurora-A at 0.1 uM by microplate scintillation counting
T4 sequence (whole entry): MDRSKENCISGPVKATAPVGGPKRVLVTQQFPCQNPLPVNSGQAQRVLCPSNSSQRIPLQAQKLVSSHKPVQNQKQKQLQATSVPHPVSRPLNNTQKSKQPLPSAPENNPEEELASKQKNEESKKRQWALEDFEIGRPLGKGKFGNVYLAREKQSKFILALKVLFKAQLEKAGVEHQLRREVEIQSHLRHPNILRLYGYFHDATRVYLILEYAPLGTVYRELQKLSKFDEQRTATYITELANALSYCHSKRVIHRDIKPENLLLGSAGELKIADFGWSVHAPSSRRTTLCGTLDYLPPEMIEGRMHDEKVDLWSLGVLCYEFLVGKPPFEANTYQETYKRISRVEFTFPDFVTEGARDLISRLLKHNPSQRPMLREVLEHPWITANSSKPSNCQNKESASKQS

[11] = molecular target: T5, TGF-beta receptor type-1 (Homo sapiens) (UniProt P36897); assay: Residual activity of TGFB-R1 at 10 uM by microplate scintillation counting
T5 sequence (whole entry): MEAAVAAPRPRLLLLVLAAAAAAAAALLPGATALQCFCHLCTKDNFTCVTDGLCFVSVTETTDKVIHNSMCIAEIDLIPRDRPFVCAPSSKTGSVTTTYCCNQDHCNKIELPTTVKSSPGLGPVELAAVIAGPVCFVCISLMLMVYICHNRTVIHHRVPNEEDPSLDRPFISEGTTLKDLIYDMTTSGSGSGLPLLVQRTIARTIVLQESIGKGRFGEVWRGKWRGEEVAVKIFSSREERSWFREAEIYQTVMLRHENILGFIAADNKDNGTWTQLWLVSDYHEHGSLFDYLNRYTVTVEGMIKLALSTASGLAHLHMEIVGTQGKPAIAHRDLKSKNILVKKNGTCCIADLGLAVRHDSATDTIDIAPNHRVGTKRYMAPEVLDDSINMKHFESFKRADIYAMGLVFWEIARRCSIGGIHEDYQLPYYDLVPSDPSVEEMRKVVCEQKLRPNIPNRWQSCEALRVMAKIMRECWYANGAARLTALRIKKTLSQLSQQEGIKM

[12] = molecular target: LIM domain kinase 1 (Homo sapiens) (UniProt P53667); assay: Residual activity of LIMK1 at 0.1 uM by microplate scintillation counting
Chain of LIM domain kinase 1 (Homo sapiens) (P53667 whole entry, looked up, the tested form may be a part): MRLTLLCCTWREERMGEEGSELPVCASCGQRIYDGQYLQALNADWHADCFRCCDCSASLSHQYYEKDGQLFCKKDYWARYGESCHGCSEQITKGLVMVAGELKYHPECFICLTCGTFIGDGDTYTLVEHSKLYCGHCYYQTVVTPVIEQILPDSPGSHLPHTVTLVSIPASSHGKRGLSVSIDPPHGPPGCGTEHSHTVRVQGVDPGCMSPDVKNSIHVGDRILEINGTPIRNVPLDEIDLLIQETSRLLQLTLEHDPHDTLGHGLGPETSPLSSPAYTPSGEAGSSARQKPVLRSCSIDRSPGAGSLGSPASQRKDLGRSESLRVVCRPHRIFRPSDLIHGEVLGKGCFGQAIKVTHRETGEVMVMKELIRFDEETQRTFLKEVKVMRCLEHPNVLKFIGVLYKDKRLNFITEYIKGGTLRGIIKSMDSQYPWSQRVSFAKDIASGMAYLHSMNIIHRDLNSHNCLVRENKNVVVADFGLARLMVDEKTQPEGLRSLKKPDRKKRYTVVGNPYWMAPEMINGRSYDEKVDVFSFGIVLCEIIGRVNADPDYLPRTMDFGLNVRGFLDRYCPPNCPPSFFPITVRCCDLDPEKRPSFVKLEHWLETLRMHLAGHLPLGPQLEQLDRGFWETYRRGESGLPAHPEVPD

[13] = molecular target: Dual specificity protein kinase CLK1 (Homo sapiens) (UniProt P49759); assay: Residual activity of CLK1 at 10 uM by microplate scintillation counting

Chain of Receptor-type tyrosine-protein kinase FLT3 (Homo sapiens) (P36888 whole entry): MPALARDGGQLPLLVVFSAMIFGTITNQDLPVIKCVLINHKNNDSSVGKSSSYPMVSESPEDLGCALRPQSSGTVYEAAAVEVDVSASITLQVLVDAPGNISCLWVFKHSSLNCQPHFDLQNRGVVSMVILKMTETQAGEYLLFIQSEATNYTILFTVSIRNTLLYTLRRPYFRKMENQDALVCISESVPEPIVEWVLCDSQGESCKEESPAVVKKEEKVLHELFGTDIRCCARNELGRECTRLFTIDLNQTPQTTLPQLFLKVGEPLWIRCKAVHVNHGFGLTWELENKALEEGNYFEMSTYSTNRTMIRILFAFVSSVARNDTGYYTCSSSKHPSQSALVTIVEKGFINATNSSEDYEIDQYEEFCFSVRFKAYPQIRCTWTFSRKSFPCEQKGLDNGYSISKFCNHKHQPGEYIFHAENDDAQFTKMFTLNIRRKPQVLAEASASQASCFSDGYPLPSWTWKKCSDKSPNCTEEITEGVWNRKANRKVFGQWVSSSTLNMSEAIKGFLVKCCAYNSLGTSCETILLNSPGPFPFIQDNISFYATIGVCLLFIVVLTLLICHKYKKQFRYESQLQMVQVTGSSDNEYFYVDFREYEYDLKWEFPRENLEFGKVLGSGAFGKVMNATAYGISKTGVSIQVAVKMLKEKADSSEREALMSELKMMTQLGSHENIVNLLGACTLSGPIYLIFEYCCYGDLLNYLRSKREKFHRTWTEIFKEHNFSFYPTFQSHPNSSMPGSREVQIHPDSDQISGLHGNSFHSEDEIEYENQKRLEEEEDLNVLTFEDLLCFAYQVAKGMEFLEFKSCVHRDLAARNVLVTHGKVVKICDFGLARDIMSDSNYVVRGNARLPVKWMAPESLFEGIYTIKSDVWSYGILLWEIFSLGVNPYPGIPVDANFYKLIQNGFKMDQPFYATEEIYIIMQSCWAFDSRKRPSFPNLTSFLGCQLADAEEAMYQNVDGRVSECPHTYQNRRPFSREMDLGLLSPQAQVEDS
Chain of Receptor tyrosine-protein kinase erbB-4 (Homo sapiens) (Q15303 whole entry): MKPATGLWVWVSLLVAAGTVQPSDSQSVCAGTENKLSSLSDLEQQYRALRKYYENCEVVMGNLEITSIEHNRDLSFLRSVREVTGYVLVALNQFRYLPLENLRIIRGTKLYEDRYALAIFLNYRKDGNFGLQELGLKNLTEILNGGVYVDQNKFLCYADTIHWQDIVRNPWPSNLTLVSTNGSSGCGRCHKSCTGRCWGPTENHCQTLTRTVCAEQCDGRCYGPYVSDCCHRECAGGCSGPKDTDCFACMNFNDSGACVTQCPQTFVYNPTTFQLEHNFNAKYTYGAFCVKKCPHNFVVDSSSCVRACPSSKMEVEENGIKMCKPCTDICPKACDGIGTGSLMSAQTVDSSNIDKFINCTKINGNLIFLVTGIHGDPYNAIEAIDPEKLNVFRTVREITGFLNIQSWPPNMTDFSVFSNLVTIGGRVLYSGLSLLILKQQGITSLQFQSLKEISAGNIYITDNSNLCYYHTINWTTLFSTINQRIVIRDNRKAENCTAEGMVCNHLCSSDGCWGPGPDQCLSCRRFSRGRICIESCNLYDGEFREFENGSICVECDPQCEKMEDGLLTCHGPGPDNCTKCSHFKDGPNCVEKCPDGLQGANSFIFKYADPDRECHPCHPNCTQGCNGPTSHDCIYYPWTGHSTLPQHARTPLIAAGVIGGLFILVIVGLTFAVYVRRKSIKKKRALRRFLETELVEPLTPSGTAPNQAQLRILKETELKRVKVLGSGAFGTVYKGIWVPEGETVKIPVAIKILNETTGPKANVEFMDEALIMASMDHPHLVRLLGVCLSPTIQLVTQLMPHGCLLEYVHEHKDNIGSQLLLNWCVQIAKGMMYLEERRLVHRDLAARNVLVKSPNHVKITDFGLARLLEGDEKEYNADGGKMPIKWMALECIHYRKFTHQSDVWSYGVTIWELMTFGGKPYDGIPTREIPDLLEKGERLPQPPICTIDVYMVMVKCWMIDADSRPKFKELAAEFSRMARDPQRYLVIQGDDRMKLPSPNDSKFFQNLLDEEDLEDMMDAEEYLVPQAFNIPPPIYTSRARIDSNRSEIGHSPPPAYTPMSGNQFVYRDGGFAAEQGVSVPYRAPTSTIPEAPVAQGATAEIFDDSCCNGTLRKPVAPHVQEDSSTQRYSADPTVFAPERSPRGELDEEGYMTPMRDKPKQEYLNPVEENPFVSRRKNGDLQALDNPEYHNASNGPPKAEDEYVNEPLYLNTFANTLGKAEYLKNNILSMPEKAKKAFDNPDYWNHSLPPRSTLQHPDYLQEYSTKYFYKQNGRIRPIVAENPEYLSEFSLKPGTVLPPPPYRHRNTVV

residual activity [1]	residual activity [2]	residual activity [3]	residual activity [5]	residual activity [6]	residual activity [7]	residual activity [8]	residual activity [9]	residual activity [10]	residual activity [11]	residual activity [12]	residual activity [13]	SMILES	residual activity [4]
42%	102%	90%	140%	93%	98%	89%	57%	68%	100%	76%	97%	COc1cc2c(Oc3ccc(-c4nc5ccccc5s4)cc3)ncnc2cc1OCCCN1CCCC1	103%
6%	100%	87%	151%	93%	109%	101%	38%	65%	94%	77%	61%	COc1cc2c(Oc3ccc(-c4nc5ccccc5s4)cc3F)ncnc2cc1OCCCN1CCN(C)CC1	96%
13%	87%	82%	146%	95%	109%	103%	50%	52%	94%	68%	83%	COc1cc2c(Oc3ccc(-c4nc5ccccc5s4)cc3)ncnc2cc1OCCCN1CCN(C)CC1	100%

— ChEMBL document CHEMBL1152560, “Substituted 2-arylbenzothiazoles as kinase inhibitors: hit-to-lead optimization” (Bioorg Med Chem, 2009)
